Laboratory results reported in US6481153B1, “Turf additive formulation for reduction of localized dry spots due to water repellency” (Milliken & Company, priority 2001, dated 2002).

System: not listed separately
Experiment: hydrophobic sand humic acid removal test
Details: formulation diluted 42 parts water:1 part; 2 ml on 3 g humic acid coated sand; dried 60° C. 24 hours; 10 ml distilled water passed through; absorbance at 620 nm vs humic acid calibration curve
Procedure: Initially, a calibrated stock solution measurement curve for humic acid itself was generated for comparison purposes with tested humic acid removal samples. Thus, a 5000 ppm Humic Acid (purchased from Fluka Chemika) stock solution was prepared by dissolving 0.5 grams of Humic acid in 100 milliliters of water. Further standard solutions were prepared by serial dilution of the 5000 ppm sandard stock solution. The absorbance of each solution was measured at 620 nm on a Beckman Model DU 650 Spectrophotometer and a plot of absorbance versus concentration provided the Humic
The Examples, listed above, both inventive and comparative, were then each individually diluted with water (42 parts water:1 part example formulation). Two milliliters of each diluted example was then placed into the open end of a 19 inch clear plastic tube containing 3 grams of the above specific humic acid coated sand. One end was then plugged by a two-layer cheese cloth square of 1.5×1.5 cm and then the tube was situated vertically with the plugged end lower. The solutions were allowed to pass through the sand and were collected after passing through the plug. The sand was then placed in an oven at 60° C. for 24 hours to remove any residual moisture. The sand (3 grams) was again packed into a 19 inch clear plastic tube plugged at one end with the cheese cloth plug. Ten ml of distilled water was then passed through the sand and collected. The absorbance at 620 nm of the distilled water sample was then measured and compared to the humic acid calibration curve (from the Table, above) to determine the amount of humic acid removed from the coated sand. This test is, for the context of this invention, is the definition of “hydrophobic sand humic acid removal test”.

Compound	ppm Removed (Removal of Humic acid from Sand) [ppm]
fully neutralized n-octenyl succinic anhydride sulfanilic sodium salt [Example 9]	1015.15
TPSA Mono-TEA Salt [Example 7]	872.40
O=C([O-])CCCCCCCCC(=O)[O-].[K+].[K+] [Example 4, Potassium sebacate]	789.78
TPSA Dipotassium Salt [Example 6]	837.52
TPSA Di-TEA Salt [Example 8]	246.46

System: grass
Experiment: not given
Details: in vivo; cited from earlier work

Compound	phytotoxicity to grass
[Na+].[OH-] [sodium hydroxide]	highly phytotoxic
